One molecule from patent US20200045974A1, “Substituted Oxadiazoles for Combating Phytopathogenic Fungi” (BASF SE, priority 2017, published 2020) can be followed below.

Common to all, as to assay type: in vivo
In experiment [1] the test system is Phakopsora pachyrhizi. In words: Curative control of soy bean rust on soy beans. The settings on record: 32 ppm active compound, soy bean seedlings sprayed after inoculation, assessed after 14 days; untreated plants 100%. The protocol:
(§1) This mixture was added to 25 mg of the compound to give a total of 5 mL. Water was then added to total volume of 100 mL. This stock solution was diluted with the described solvent-emulsifier-water mixture to the given concentration.
II.1) Curative Control of Soy Bean Rust on Soy Beans Caused by Phakopsora pachyrhizi
Leaves of pot-grown soy bean seedlings were inoculated with spores of Phakopsora pachyrhizi. To ensure the success of the artificial inoculation, the plants were transferred to a humid chamber with a relative humidity of about 95% and 20 to 24° C. for 24 hours. The next day the plants were cultivated for 3 days in a greenhouse chamber at 23 to 27° C. and a relative humidity between 60 and 80%. Then the plants were sprayed to run-off with an aqueous suspension, containing the concentration of active ingredient or their mixture as described below. The plants were allowed to air-dry. Then the trial plants were cultivated for 14 days in a greenhouse chamber at 23 to 27° C. and a relative humidity between 60 and 80%. The extent of fungal attack on the leaves was visually assessed as % diseased leaf area.

The test system of experiment [2] is Phakopsora pachyrhizi. Nature of the experiment: Protective control of soy bean rust on soy beans. The settings on record: 32 ppm active compound, soy bean seedlings sprayed 2 days before inoculation, assessed after fourteen days; untreated plants 100%. The protocol: as §1
II.2) Protective Control of Soy Bean Rust on Soy Beans Caused by Phakopsora pachyrhizi
Leaves of pot-grown soy bean seedlings were sprayed to run-off with an aqueous suspension, containing the concentration of active ingredient or their mixture as described below. The plants were allowed to air-dry. The trial plants were cultivated for 2 day in a greenhouse chamber at 23 to 27° C. and a relative humidity between 60 and 80%.Then the plants were inoculated with spores of Phakopsora pachyrhizi. To ensure the success the artificial inoculation, the plants were transferred to a humid chamber with a relative humidity of about 95% and 20 to 24° C. for 24 hours. The trial plants were cultivated for fourteen days in a greenhouse chamber at 23 to 27° C. and a relative humidity between 60 and 80%. The extent of fungal attack on the leaves was visually assessed as % diseased leaf area.

The next experiment has as its system Puccinia recondite. In words: Curative control of brown rust on wheat. The settings on record: 32 ppm active compound, wheat seedlings sprayed after inoculation, assessed after 8 days; untreated plants 90%. As to the method: as §1
II.3) Curative Control of Brown Rust on Wheat Caused by Puccinia Recondite
The first two developed leaves of pot-grown wheat seedling were dusted with spores of Puccinia recondite. To ensure the success the artificial inoculation, the plants were transferred to a humid chamber without light and a relative humidity of 95 to 99% and 20 to 24° C. for 24 hours. The next day the plants were cultivated for 3 days in a greenhouse chamber at 20 to 24° C. and a relative humidity between 65 and 70%. Then the plants were sprayed to run-off with an aqueous suspension, containing the concentration of active ingredient or their mixture as described below. The plants were allowed to air-dry. Then the trial plants were cultivated for 8 days in a greenhouse chamber at 20 to 24° C. and a relative humidity between 65 and 70%. The extent of fungal attack on the leaves was visually assessed as % diseased leaf area.

Molecules are shown by their SMILES.

As for `O=C(NC12CC(C1)C2)c1ccc(-c2noc(C(F)(F)F)n2)cc1` [Ex-1, N-(1-bicyclo[1.1.1]pentanyl)-4-[5-(trifluoromethyl)-1,2,4-oxadiazol-3-yl]benzamide], the diseased leaf area with Phakopsora pachyrhizi [1] was 0%; in the experiment on Phakopsora pachyrhizi [2] it was 0%; in the experiment with Puccinia recondite, 2%.
